# Reference: patent US6227295A, “High temperature hydraulic fracturing fluid” (Schlumberger Technology Corporation, priority 1999, dated 2001)
# Several values for one entry are separate records, joined by “and”; a condition that tells them apart may be missing. Identical values can stand only once. Like-named read-outs stand apart in the source and are kept apart here.
# Tests used:
# [1] = cited from earlier work
# [2] = pH of organic amine stabilizers (Table 1, mostly determined experimentally); format: physicochemical; conditions: pH in water, some from the literature
# Excerpt: The fluid also comprises an organic amine stabilizing agent that has a first pKa or a pH in water of at least about 9.5. The organic amine preferably has from 1-20 carbon atoms, more preferably 1-10 carbon atoms. In one particularly preferred embodiment, the organic amine has the formula: […]
# Table 1 below lists a number of organic amines that can be used as stabilizers in the present invention. The pKa values in the table are from the literature; the pH values in the table were mostly determined experimentally, although some were taken from the literature.
# [3] = Viscosity retention of CMHPG linear gels after aging at 325° F. (Example 1, Table 2); format: physicochemical; conditions: TEPA 5 gpt, no secondary additive
# Method: Aqueous polymer solutions were aged in an air oven at elevated temperatures, and their viscosity was measured before and after the aging. […] The base gels were made in 1 liter quantities, and stored in Nalgene-type plastic bottles. The viscosity of each batch of base gel was measured at 70° F. on a Contraves LS-30 viscometer to establish the baseline for that batch.
# [4] = Typical pH of fracturing fluid with TEPA as the stabilizer; format: physicochemical; conditions: TEPA used as the stabilizer
# Excerpt: where R1 is C1 -C4 alkyl and n is from 1-6. Preferably R1 is ethylene and n is 4. This preferred amine, tetraethylenepentamine (TEPA), is available from Dow Chemical.
Compound,pKa [1],pH [2],further results
"CC(N)CN (stereo not drawn) [1,2-diaminopropane]",9.8,,pKa ([1]; second value): 6.6
"NCCCN [1,3-diaminopropane]",10.9,,pKa ([1]; second value): 9.0
"NCCCCN [1,4-diaminobutane]",11.2,,pKa ([1]; second value): 9.7
"NCCCNCCNCCCN [BAPED, N,N'-bis(3-aminopropyl)ethylene-diamine]",,11.72,
"CCCCCCCCCCCCN [DDA, dodecylamine]",,10.22,
"CCN(O)CC [DHA, N,N-diethylhydroxylamine]",,11.06,
"CC(COCCCN)COCCCN [DPA-12, di-(gamma-aminopropylether) of 2-methyl-1,3-propane diol]",,11.41,
"NCCCOCCOCCCN [NDPA-10, di-(gamma-aminopropylether) of ethylene glycol]",,11.58,
"NCCCOCCCCOCCCN [NDPA-12, di-(gamma-aminopropylether) of 1,4-butane diol]",,11.55,
"NCCN(CCN)CCN [TAA, tris-(2-aminoethyl)amine]",,11.25,
NCCNCCN [diethylenetriamine],,11.42,
NCCN [ethylenediamine],10.7,,pKa ([1]; second value): 7.6
NCCCCCCN [hexamethylenediamine],11.9,,
CCCCN [n-butylamine],10.8,,
CCCCCCCCCCN [n-decylamine],10.6,,
NCCNCCNCCNCCN [tetraethylenepentamine],,11.29,% of initial viscosity after 2 hrs. ([3]; 325° F.): 93% and 63%; pH (Comments) [3]: 11.50; pH of the fluid [4]: about 10.8
NCCCCN [tetramethylenediamine],10.7,,
